# Measured values taken from PubChem BioAssay AID2060888 (Molecular Pharmacology Branch, DTP, NCI, 2025).
# System: 695427-040-R-J1-PDC complex spheroid viability
# Experiment: Anticancer human tumor 695427-040-R-J1-PDC patient-derived colon adenocarcinoma cell line growth inhibition [RAS]
# Settings: for IC50: curve of first compound; for viability, T/C: stronger effect = lower value
# Outline: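 Multi-cell-type spheroids: tumor cells plus HUVEC endothelial cells and mesenchymal stem cells. RAS-pathway inhibitors were combined with targeted agents, each dosed in half-log steps down from clinical Cmax, or from 10 microM when Cmax was unknown.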
# 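Also: viability read after seven days of drug exposure.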
# 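For viability, T/C in this document: 100% = DMSO vehicle control viability.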
structure (smiles),measurement,setting,value
CC(=O)OC12COC1CC(O)C1(C)C(=O)C(O)C3=C(C)C(OC(=O)C(O)C(NC(=O)OC(C)(C)C)c4ccccc4)CC(O)(C(OC(=O)c4ccccc4)C21)C3(C)C (centres undefined) + CCn1c(-c2cccnc2C(C)OC)c2c3cc(ccc31)N1CCOC(CC(NC(=O)C(C(C)C)N(C)C(=O)C3(F)CCN(C(=O)C#CC(C)(C)N(C)C)CC3)C(=O)N3CCCC(N3)C(=O)OCC(C)(C)C2)C1,IC50,second compound 0.000949 µM,> 10000 nM
same,IC50,second compound 0.003 µM,> 10000 nM
same,IC50,second compound 0.00949 µM,> 10000 nM
same,IC50,second compound 0.03 µM,> 10000 nM
same,IC50,second compound 0.0949 µM,> 10000 nM
same,IC50,second compound 0.3 µM,> 10000 nM
same,"viability, T/C","second compound 0.000949 µM, first compound 0.0316 µM",81%
same,"viability, T/C","second compound 0.000949 µM, first compound 0.1 µM",73.9%
same,"viability, T/C","second compound 0.000949 µM, first compound 0.316 µM",76%
same,"viability, T/C","second compound 0.000949 µM, first compound 1 µM",61.4%
same,"viability, T/C","second compound 0.000949 µM, first compound 3.16 µM",65.3%
same,"viability, T/C","second compound 0.000949 µM, first compound 10 µM",73.5%
same,"viability, T/C","second compound 0.003 µM, first compound 0.0316 µM",95.7%
same,"viability, T/C","second compound 0.003 µM, first compound 0.1 µM",77.1%
same,"viability, T/C","second compound 0.003 µM, first compound 0.316 µM",61.1%
same,"viability, T/C","second compound 0.003 µM, first compound 1 µM",64.1%
same,"viability, T/C","second compound 0.003 µM, first compound 3.16 µM",70.8%
same,"viability, T/C","second compound 0.003 µM, first compound 10 µM",66.9%
same,"viability, T/C","second compound 0.00949 µM, first compound 0.0316 µM",107%
same,"viability, T/C","second compound 0.00949 µM, first compound 0.1 µM",61%
same,"viability, T/C","second compound 0.00949 µM, first compound 0.316 µM",67.4%
same,"viability, T/C","second compound 0.00949 µM, first compound 1 µM",69.3%
same,"viability, T/C","second compound 0.00949 µM, first compound 3.16 µM",78.5%
same,"viability, T/C","second compound 0.00949 µM, first compound 10 µM",69%
same,"viability, T/C","second compound 0.03 µM, first compound 0.0316 µM",83.6%
same,"viability, T/C","second compound 0.03 µM, first compound 0.1 µM",71.9%
same,"viability, T/C","second compound 0.03 µM, first compound 0.316 µM",61%
same,"viability, T/C","second compound 0.03 µM, first compound 1 µM",68.4%
same,"viability, T/C","second compound 0.03 µM, first compound 3.16 µM",78.8%
same,"viability, T/C","second compound 0.03 µM, first compound 10 µM",77%
same,"viability, T/C","second compound 0.0949 µM, first compound 0.0316 µM",77.7%
same,"viability, T/C","second compound 0.0949 µM, first compound 0.1 µM",51.4%
same,"viability, T/C","second compound 0.0949 µM, first compound 0.316 µM",67.1%
same,"viability, T/C","second compound 0.0949 µM, first compound 1 µM",57.4%
same,"viability, T/C","second compound 0.0949 µM, first compound 3.16 µM",76%
same,"viability, T/C","second compound 0.0949 µM, first compound 10 µM",82.4%
same,"viability, T/C","second compound 0.3 µM, first compound 0.0316 µM",76.8%
same,"viability, T/C","second compound 0.3 µM, first compound 0.1 µM",60.1%
same,"viability, T/C","second compound 0.3 µM, first compound 0.316 µM",68.1%
same,"viability, T/C","second compound 0.3 µM, first compound 1 µM",51.7%
same,"viability, T/C","second compound 0.3 µM, first compound 3.16 µM",43.9%
same,"viability, T/C","second compound 0.3 µM, first compound 10 µM",71.1%
CCc1c2c(nc3ccc(O)cc13)-c1cc3c(c(=O)n1C2)COC(=O)[C@]3(O)CC + CCn1c(-c2cccnc2C(C)OC)c2c3cc(ccc31)N1CCOC(CC(NC(=O)C(C(C)C)N(C)C(=O)C3(F)CCN(C(=O)C#CC(C)(C)N(C)C)CC3)C(=O)N3CCCC(N3)C(=O)OCC(C)(C)C2)C1,IC50,second compound 0.000949 µM,113 nM
same,IC50,second compound 0.003 µM,131 nM
same,IC50,second compound 0.00949 µM,49.3 nM
same,IC50,second compound 0.03 µM,69.2 nM
same,IC50,second compound 0.0949 µM,79.1 nM
same,IC50,second compound 0.3 µM,95.2 nM
same,"viability, T/C","second compound 0.000949 µM, first compound 0.000949 µM",97.1%
same,"viability, T/C","second compound 0.000949 µM, first compound 0.003 µM",93.3%
same,"viability, T/C","second compound 0.000949 µM, first compound 0.00949 µM",84.2%
same,"viability, T/C","second compound 0.000949 µM, first compound 0.03 µM",61.5%
same,"viability, T/C","second compound 0.000949 µM, first compound 0.0949 µM",56.7%
same,"viability, T/C","second compound 0.000949 µM, first compound 0.3 µM",37.7%
same,"viability, T/C","second compound 0.003 µM, first compound 0.000949 µM",91.7%
same,"viability, T/C","second compound 0.003 µM, first compound 0.003 µM",84.6%
same,"viability, T/C","second compound 0.003 µM, first compound 0.00949 µM",66.1%
same,"viability, T/C","second compound 0.003 µM, first compound 0.03 µM",64.1%
same,"viability, T/C","second compound 0.003 µM, first compound 0.0949 µM",53%
same,"viability, T/C","second compound 0.003 µM, first compound 0.3 µM",43.1%
same,"viability, T/C","second compound 0.00949 µM, first compound 0.000949 µM",98.3%
same,"viability, T/C","second compound 0.00949 µM, first compound 0.003 µM",76.8%
same,"viability, T/C","second compound 0.00949 µM, first compound 0.00949 µM",65.8%
same,"viability, T/C","second compound 0.00949 µM, first compound 0.03 µM",63.4%
same,"viability, T/C","second compound 0.00949 µM, first compound 0.0949 µM",36.5%
same,"viability, T/C","second compound 0.00949 µM, first compound 0.3 µM",35.8%
same,"viability, T/C","second compound 0.03 µM, first compound 0.000949 µM",79.8%
same,"viability, T/C","second compound 0.03 µM, first compound 0.003 µM",96.4%
same,"viability, T/C","second compound 0.03 µM, first compound 0.00949 µM",80.1%
same,"viability, T/C","second compound 0.03 µM, first compound 0.03 µM",71.6%
same,"viability, T/C","second compound 0.03 µM, first compound 0.0949 µM",41.7%
same,"viability, T/C","second compound 0.03 µM, first compound 0.3 µM",31.5%
same,"viability, T/C","second compound 0.0949 µM, first compound 0.000949 µM",87.3%
same,"viability, T/C","second compound 0.0949 µM, first compound 0.003 µM",79.5%
same,"viability, T/C","second compound 0.0949 µM, first compound 0.00949 µM",81.6%
same,"viability, T/C","second compound 0.0949 µM, first compound 0.03 µM",49.7%
same,"viability, T/C","second compound 0.0949 µM, first compound 0.0949 µM",57%
same,"viability, T/C","second compound 0.0949 µM, first compound 0.3 µM",24.2%
same,"viability, T/C","second compound 0.3 µM, first compound 0.000949 µM",82.7%
same,"viability, T/C","second compound 0.3 µM, first compound 0.003 µM",101%
same,"viability, T/C","second compound 0.3 µM, first compound 0.00949 µM",69.7%
same,"viability, T/C","second compound 0.3 µM, first compound 0.03 µM",58.8%
same,"viability, T/C","second compound 0.3 µM, first compound 0.0949 µM",57%
same,"viability, T/C","second compound 0.3 µM, first compound 0.3 µM",31.2%
